Measurements taken from patent publication US11214803B2, “Modulators of YAP1 expression” (Ionis Pharmaceuticals, Inc., priority 2019, dated 2022).
Strand notation (5' to 3'): a small letter for the sugar, then the base; units joined by * are phosphorothioate-linked, units joined directly phosphodiester-linked; [ ] holds rarer units or linkages, { } end groups; capitals alone tell only the bases. e = 2'-O-(2-methoxyethyl) (MOE); k = constrained ethyl (cEt); [5mC] = 5-methylcytosine; d = 2'-deoxy (DNA); m = 2'-O-methyl

System: Yap1 mRNA
Test: Antisense inhibition of human Yap1 in SNU-449 cells by modified oligonucleotides, single dose (Example 5, RTS36584)
Type: cell-based
Conditions: Table 39; SNU-449 cells, 10,000 cells per well, free uptake, 2,000 nM oligonucleotide, approx. 48 hours; RTS36584; normalized to RIBOGREEN; Yap1 mRNA relative to untreated control
Outline: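 Plate SNU-449 cells at 10,000 per well; add 2,000 nM modified oligonucleotide without transfection reagent; after ~48 h isolate RNA, run qRT-PCR with RTS36584, normalise to RIBOGREEN and report % UTC.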

Substance | YAP1 (% UTC)
1198429 (kA*dT*dT*dG*d[5mC]*dA*dA*dT*d[5mC]*dT*dG*kT*e[5mC]*kT*eG*kA; antisense) [Compound 1198429] | 48 % UTC
1198433 (kG*dT*dA*dA*dT*dA*dT*dT*dG*d[5mC]*dA*kA*eT*k[5mC]*eT*kG) [Compound 1198433] | 36 % UTC

Same assay, conditions: Table 40 (separate experiment); SNU-449 cells, 10,000 cells per well, free uptake, 2,000 nM oligonucleotide, approx. 48 hours; RTS36584; normalized to RIBOGREEN; Yap1 mRNA relative to untreated control

Substance | YAP1 (% UTC)
1198796 (antisense kA*eG*kT*dA*dA*dG*dG*dT*dT*dT*d[5mC]*d[5mC]*e[5mC]*eA*kG*kA) [Compound 1198796] | 32 % UTC
1198443 (kT*dT*dA*dA*dA*dG*dT*dG*dT*dA*dT*kG*eT*k[5mC]*eA*kG; antisense) [Compound 1198443] | 39 % UTC
1198800 (antisense kA*e[5mC]*kT*dA*dA*dG*dT*dA*dA*dG*dG*dT*eT*eT*k[5mC]*k[5mC]) [Compound 1198800] | 47 % UTC

Same assay, conditions: Table 41; SNU-449 cells, 10,000 cells per well, free uptake, 2,000 nM modified oligonucleotide, approximately 48 hours; RTS36584; normalized to RIBOGREEN; Yap1 mRNA relative to untreated control cells

Substance | YAP1 (% UTC)
1198640 (kT*kT*dA*dG*dA*dG*dT*dA*dT*dG*dT*dG*kG*e[5mC]*kA*eA; antisense) [Compound 1198640] | 26 % UTC
1198666 (antisense kG*kT*dG*d[5mC]*dT*dT*dT*dG*dG*dA*dA*dG*kA*eT*k[5mC]*eT) [Compound 1198666] | 44 % UTC
1198735 (kG*eA*kG*dG*dT*dA*dT*dA*dA*d[5mC]*dT*dG*eG*eG*k[5mC]*kA; antisense) [Compound 1198735] | 34 % UTC
1198673 (antisense kG*kA*dT*dT*dT*dA*dG*dG*dA*dT*dG*d[5mC]*kA*eT*kG*eG) [Compound 1198673] | 10 % UTC

Same assay, conditions: Table 42 (separate experiment); SNU-449 cells, 10,000 cells per well, free uptake, 2,000 nM modified oligonucleotide, approximately 48 hours; RTS36584; normalized to RIBOGREEN; Yap1 mRNA relative to untreated control cells

Substance | YAP1 (% UTC)
1198209 (kT*kA*dG*dA*dG*dT*dA*dT*dG*dT*dG*eG*e[5mC]*eA*kA*kT; antisense) [Compound 1198209] | 45 % UTC

Same assay, conditions: Table 43 experiment; SNU-449 cells, 10,000 cells per well, free uptake, 2,000 nM, approximately 48 hours; RTS36584; Yap1 mRNA normalized to RIBOGREEN, relative to untreated control cells

Substance | YAP1 (% UTC)
1198473 (antisense kT*k[5mC]*dT*dA*dT*dA*dT*dT*dA*dG*dA*eG*kT*eA*kT*eG) [Compound 1198473] | 66 % UTC
1198268 (kA*kA*dG*dT*dG*dT*dA*dT*dG*dT*d[5mC]*eA*eG*eA*kA*kG; antisense) [Compound 1198268] | 11 % UTC
1198466 (antisense kA*kG*dA*dG*dT*dA*dT*dG*dT*dG*dG*e[5mC]*kA*eA*kT*eA) [Compound 1198466] | 12 % UTC

Same assay, conditions: Table 44 experiment; SNU-449 cells, 10,000 cells per well, free uptake, 2,000 nM, approximately 48 hours; RTS36584; Yap1 mRNA normalized to RIBOGREEN, relative to untreated control cells

Substance | YAP1 (% UTC)
1198476 (antisense kA*kG*dG*dT*dA*dT*dA*dA*d[5mC]*dT*dG*eG*kG*e[5mC]*kA*eA) [Compound 1198476] | 31 % UTC

Same assay, conditions: Table 45; Yap1 mRNA as percent of untreated control, SNU-449 cells, single dose

Substance | YAP1 (% UTC)
1198953 (kG*kT*dA*dA*dT*dA*dT*dT*dG*d[5mC]*dA*kA*dT*k[5mC]*dT*kG; antisense) [Compound 1198953] | 58 % UTC
1198957 (kT*kT*dT*dA*dT*dG*dT*dA*dA*dT*dA*kT*dT*kG*d[5mC]*kA; antisense) [Compound 1198957] | 81 % UTC
1198924 (kT*kT*dT*dG*dG*dA*dA*dG*dA*dT*d[5mC]*kT*dG*kA*dA*kA; antisense) [Compound 1198924] | 75 % UTC

Same assay, conditions: Table 46; Yap1 mRNA as percent of untreated control, SNU-449 cells, single dose

Substance | YAP1 (% UT)
1095407 (antisense kA*k[5mC]*dT*dG*dA*dG*dG*dT*dA*dT*dA*kA*e[5mC]*kT*eG*kG) [Compound 1095407] | 54 % UT
1198865 (kA*kA*dT*dA*dT*dT*dG*d[5mC]*dA*dA*dT*k[5mC]*eT*kG*eT*k[5mC]; antisense) [Compound 1198865] | 38 % UT
1198889 (kT*kT*dA*dG*dA*d[5mC]*dT*dA*dA*dG*dT*kA*eA*kG*eG*kT; antisense) [Compound 1198889] | 27 % UT
1198850 (kA*kG*dA*dT*dT*dT*dA*dG*dG*dA*dT*kG*e[5mC]*kA*eT*kG; antisense) [Compound 1198850] | 33 % UT

Same assay, conditions: Table 48; Yap1 mRNA level relative to untreated control; modified oligonucleotides targeting SEQ ID NO.: 1 and 2

Substance | YAP1 (% UT)
1198300 (kT*kA*kT*dA*dT*dT*dA*dG*dA*dG*dT*dA*kT*eG*kT*eG; antisense) [Compound 1198300] | 60 % UT
1009397 (kA*kA*k[5mC]*dA*d[5mC]*dT*dG*dA*dG*dG*dT*dA*dT*kA*kA*k[5mC]; antisense) [Compound 1009397] | 44 % UT

Same assay, conditions: Table 49; Yap1 mRNA level relative to untreated control; modified oligonucleotides targeting SEQ ID NO.: 1 and 2

Substance | YAP1 (% UT)
1198368 (kA*kG*kA*d[5mC]*dT*dA*dA*dG*dT*dA*dA*dG*kG*eT*kT*eT; antisense) [Compound 1198368] | 79 % UT
1198548 (antisense kT*kG*kG*dA*dA*dA*dT*dT*dG*dT*d[5mC]*dT*k[5mC]*kA*kT*eG) [Compound 1198548] | 26 % UT

Same assay, conditions: Table 50; Yap1 mRNA remaining as percent of untreated control (UT), SNU-449 cells, single dose

Substance | YAP1 (% UT)
1198601 (antisense kA*kT*kT*dG*d[5mC]*dA*dA*dT*d[5mC]*dT*dG*dT*k[5mC]*kT*kG*eA) [Compound 1198601] | 50 % UT
1198593 (antisense kT*kT*kA*dT*dA*dT*dG*dG*dT*dT*dT*dT*kG*kT*kG*eT) [Compound 1198593] | 45 % UT
1197281 (kA*kT*kT*dG*mU*d[5mC]*dT*dC*dA*dT*dG*d[5mC]*d[5mC]*kT*kT*kA; antisense) [Compound 1197281] | 42 % UT

Same assay, conditions: Table 51; Yap1 mRNA remaining as percent of untreated control (UT), SNU-449 cells, single dose

Substance | YAP1 (% UT)
1197268 (kA*kA*kG*dT*mG*dT*dA*dT*dG*dT*d[5mC]*dA*dG*kA*kA*kG) [Compound 1197268] | 25 % UT
1200795 (kT*kA*kG*dA*dG*mU*dA*dT*dG*dT*dG*dG*d[5mC]*kA*kA*kT; antisense) [Compound 1200795] | 30 % UT
1197239 (antisense kT*kG*kA*dG*mG*dT*dA*dT*dA*dA*d[5mC]*dT*dG*kG*kG*k[5mC]) [Compound 1197239] | 47 % UT
1197253 (antisense kA*kG*kT*dG*mC*dT*dT*dT*dG*dG*dA*dA*dG*kA*kT*k[5mC]) [Compound 1197253] | 58 % UT
1197275 (kA*kA*kG*dT*mA*dA*dG*dG*dT*dT*dT*d[5mC]*d[5mC]*k[5mC]*kA*kG) [Compound 1197275] | 30 % UT
1197301 (AGATUTAGGATGCATG; chemistry not fully specified) [Compound 1197301] | 71 % UT

Same assay, conditions: Table 52; Yap1 mRNA, modified oligonucleotides targeting SEQ ID NO: 1 and 2

Substance | YAP1 (% UT)
1200811 (kT*kT*kA*d[5mC]*dA*mU*dT*dA*dG*dG*dA*dA*d[5mC]*kA*kA*kG; antisense) [Compound 1200811] | 62 % UT
1200833 (kG*kA*kT*dT*dT*mA*dG*dG*dA*dT*dG*d[5mC]*dA*kT*kG*kG; antisense) [Compound 1200833] | 31 % UT
1200805 (kG*kA*kG*dG*dT*mA*dT*dA*dA*d[5mC]*dT*dG*dG*kG*k[5mC]*kA; antisense) [Compound 1200805] | 50 % UT
1200844 (kA*kA*k[5mC]*dT*d[5mC]*mU*dT*dA*dT*dA*dT*dG*dG*kT*kT*kT; antisense) [Compound 1200844] | 132 % UT
1200789 (G_{ks}G_{ks}A_{ks}A_{ds}A_{ds}U_{ys}T_{ds}G_{ds}T_{ds}^{m}C_{ds}T_{ds}^{m}C_{ds}A_{ds}T_{ks}G_{ks}^{m}C_{k}; antisense; as printed in the source, key not given here) [Compound 1200789] | 12 % UT
1200803 (kG*kG*kT*dA*dT*mA*dA*d[5mC]*dT*dG*dG*dG*d[5mC]*kA*kA*kA; antisense) [Compound 1200803] | 22 % UT
1200847 (kA*kT*kT*dG*d[5mC]*mA*dA*dT*d[5mC]*dT*dG*dT*d[5mC]*kT*kG*kA; antisense) [Compound 1200847] | 54 % UT

Same assay, conditions: Yap1 mRNA, percent of untreated control; modified oligonucleotides targeting SEQ ID NO: 1 and 2; Table 47

Substance | YAP1 (% UT)
1197211 (antisense kT*kA*kT*dG*dT*dA*dA*dT*dA*dT*dT*dG*d[5mC]*kA*kA*kT) [Compound 1197211] | 80 % UT
